Assay results from patent US11572590B2, “Methods for evaluating tumor cell spheroids using 3D microfluidic cell culture device” (Dana-Farber Cancer Institute, Inc., priority 2017, dated 2023).
Like-named read-outs stand apart in the source and are kept apart here.

Tests used:
Test in all cases: SelectScreen Kinase Profiling, single point inhibition and IC50 for off-target kinases
Format in all cases: biochemical
off-target kinases [1] = target: T1, off-target kinases (Homo sapiens, UniProt P43403); details: ZAP70, ZLYTE, ATP Km app
T1 sequence (P43403 1-619): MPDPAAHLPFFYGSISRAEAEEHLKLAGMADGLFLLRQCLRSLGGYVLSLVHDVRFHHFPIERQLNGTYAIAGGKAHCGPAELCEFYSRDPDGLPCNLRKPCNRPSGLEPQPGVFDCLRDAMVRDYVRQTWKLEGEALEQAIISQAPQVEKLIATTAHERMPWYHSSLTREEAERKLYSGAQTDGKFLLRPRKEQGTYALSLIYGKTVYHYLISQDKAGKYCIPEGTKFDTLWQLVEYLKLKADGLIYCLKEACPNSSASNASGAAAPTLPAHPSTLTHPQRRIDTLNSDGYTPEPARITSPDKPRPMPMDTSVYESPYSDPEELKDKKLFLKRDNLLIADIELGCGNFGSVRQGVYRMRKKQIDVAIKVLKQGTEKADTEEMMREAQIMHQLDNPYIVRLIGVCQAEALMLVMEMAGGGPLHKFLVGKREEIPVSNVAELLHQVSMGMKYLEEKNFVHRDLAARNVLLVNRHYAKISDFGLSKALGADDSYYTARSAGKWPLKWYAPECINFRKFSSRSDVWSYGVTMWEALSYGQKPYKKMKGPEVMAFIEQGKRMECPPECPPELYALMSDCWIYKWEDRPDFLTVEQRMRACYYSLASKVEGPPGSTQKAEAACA

off-target kinases [2] = target: off-target kinases (Homo sapiens, UniProt P43405); details: SYK, 1000 μM, ATP Km app, ZLYTE
off-target kinases [3] = target: off-target kinases (Homo sapiens, UniProt P42345); details: FRAP1 (mTOR), ZLYTE, ATP Km app
off-target kinases [4] = target: off-target kinases (Homo sapiens, UniProt P10721, T670I/V559D); details: KIT V559D T670I, LanthaScreen Binding
off-target kinases [5] = target: T2, off-target kinases (Homo sapiens, UniProt Q9UEE5); details: STK17A (DRAK1), LanthaScreen Binding
T2 sequence (Q9UEE5 1-414): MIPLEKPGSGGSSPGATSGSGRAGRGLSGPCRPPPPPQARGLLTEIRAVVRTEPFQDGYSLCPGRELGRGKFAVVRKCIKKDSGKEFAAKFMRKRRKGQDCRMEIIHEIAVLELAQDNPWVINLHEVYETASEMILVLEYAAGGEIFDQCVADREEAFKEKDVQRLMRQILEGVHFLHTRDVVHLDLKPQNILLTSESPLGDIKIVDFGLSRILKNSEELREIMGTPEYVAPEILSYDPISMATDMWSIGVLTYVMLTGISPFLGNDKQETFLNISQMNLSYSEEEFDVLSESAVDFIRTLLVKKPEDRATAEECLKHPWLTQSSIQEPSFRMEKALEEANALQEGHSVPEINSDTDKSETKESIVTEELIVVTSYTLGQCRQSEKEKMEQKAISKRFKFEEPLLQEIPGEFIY

off-target kinases [6] = target: off-target kinases (Homo sapiens, UniProt P11309); details: PIM1, ZLYTE, ATP Km app
off-target kinases [7] = target: off-target kinases (Homo sapiens, UniProt Q9Y6M4); details: CSNK1G3 (CK1 gamma 3), ZLYTE, ATP Km app
off-target kinases [8] = target: off-target kinases (Homo sapiens, UniProt Q9NY57); details: STK32B (YANK2), LanthaScreen Binding
off-target kinases (Homo sapiens, UniProt Q9NY57), sequence (Q9NY57 whole entry): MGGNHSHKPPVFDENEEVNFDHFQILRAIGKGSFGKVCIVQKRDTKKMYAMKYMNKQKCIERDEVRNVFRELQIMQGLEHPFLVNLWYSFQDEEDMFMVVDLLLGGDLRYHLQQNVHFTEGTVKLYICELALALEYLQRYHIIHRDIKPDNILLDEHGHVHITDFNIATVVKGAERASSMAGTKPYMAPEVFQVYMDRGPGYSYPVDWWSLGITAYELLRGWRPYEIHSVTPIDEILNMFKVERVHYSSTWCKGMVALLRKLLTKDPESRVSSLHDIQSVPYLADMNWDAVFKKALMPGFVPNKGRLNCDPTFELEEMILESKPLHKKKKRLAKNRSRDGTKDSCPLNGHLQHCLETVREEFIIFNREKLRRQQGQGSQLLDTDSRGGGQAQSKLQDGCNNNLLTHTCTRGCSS

off-target kinases (Homo sapiens, UniProt Q9Y6M4), sequence (Q9Y6M4 whole entry): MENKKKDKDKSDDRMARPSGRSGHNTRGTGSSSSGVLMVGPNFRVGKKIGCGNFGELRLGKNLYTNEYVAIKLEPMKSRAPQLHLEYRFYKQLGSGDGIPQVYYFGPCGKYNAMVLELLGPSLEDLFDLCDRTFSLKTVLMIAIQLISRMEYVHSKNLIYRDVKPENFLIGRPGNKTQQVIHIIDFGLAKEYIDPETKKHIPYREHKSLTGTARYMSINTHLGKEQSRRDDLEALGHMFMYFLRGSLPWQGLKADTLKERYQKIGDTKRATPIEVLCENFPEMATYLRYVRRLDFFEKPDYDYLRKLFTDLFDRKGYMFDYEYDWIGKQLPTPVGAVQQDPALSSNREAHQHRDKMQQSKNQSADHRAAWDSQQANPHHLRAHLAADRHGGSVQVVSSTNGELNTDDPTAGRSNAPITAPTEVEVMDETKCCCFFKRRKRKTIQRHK
off-target kinases (Homo sapiens, UniProt P10721, T670I/V559D), sequence (P10721 26-976 V559D/T670I): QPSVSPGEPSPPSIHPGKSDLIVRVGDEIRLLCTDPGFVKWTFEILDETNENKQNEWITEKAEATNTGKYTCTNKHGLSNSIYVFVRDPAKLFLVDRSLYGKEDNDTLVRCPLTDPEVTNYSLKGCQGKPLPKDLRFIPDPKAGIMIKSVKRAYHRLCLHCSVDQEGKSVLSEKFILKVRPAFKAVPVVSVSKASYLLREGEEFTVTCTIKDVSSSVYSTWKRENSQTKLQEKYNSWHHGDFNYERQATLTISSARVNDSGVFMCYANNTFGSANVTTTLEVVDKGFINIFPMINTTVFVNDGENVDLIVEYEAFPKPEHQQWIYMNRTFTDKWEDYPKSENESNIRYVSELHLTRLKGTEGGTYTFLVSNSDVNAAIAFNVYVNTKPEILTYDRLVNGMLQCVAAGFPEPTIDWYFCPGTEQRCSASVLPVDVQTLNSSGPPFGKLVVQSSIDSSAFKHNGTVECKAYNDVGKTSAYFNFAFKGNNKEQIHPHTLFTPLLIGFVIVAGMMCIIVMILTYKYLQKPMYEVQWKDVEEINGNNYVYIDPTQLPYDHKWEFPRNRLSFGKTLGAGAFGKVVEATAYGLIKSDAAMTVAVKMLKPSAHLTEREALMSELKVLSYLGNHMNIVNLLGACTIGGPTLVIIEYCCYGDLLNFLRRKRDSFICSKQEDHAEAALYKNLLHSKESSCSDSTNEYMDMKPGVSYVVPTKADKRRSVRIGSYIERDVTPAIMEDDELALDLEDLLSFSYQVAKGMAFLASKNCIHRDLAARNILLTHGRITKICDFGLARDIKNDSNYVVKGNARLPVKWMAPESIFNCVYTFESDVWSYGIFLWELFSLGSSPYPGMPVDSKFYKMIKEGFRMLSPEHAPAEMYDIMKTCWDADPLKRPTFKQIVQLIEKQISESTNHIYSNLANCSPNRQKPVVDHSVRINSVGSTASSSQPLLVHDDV
off-target kinases (Homo sapiens, UniProt P11309), sequence (P11309 whole entry): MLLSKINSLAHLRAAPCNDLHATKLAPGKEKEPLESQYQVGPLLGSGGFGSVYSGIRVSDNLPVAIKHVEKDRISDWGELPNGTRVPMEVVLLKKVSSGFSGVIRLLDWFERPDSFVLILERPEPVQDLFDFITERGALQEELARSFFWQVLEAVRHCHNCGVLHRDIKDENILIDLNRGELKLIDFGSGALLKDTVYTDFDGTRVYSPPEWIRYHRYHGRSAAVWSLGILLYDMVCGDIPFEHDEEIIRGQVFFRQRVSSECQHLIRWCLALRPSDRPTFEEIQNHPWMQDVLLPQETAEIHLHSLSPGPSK

With `N#Cc1cc(-c2ncnc(Nc3ccc(N4CCN(C5COC5)CC4)cc3)n2)ccc1OC1CCOCC1` [Compound 1, 5-(4-((4-(4-(oxetan-3-yl)piperazin-1-yl)phenyl)amino)-1,3,5-triazin-2-yl)-2-((tetrahydro-2H-pyran-4-yl)oxy)benzonitrile] the inhibition (off-target kinases [1]; read-out: % Inhibition 1) was 4%, the inhibition (off-target kinases [1]; read-out: % Inhibition 2) was 4% and the inhibition (off-target kinases [1]; read-out: % Inhibition Avg) was 4%. It also gave an inhibition at 1000 µM (off-target kinases [2]; read-out: % Inhibition 1) of 44%, an inhibition at 1000 µM (off-target kinases [2]; read-out: % Inhibition 2) of 49% and an inhibition at 1000 µM (off-target kinases [2]; read-out: % Inhibition Avg) of 46%. It also gave an inhibition (off-target kinases [3]; read-out: % Inhibition 1) of 2%, an inhibition (off-target kinases [3]; read-out: % Inhibition 2) of 12% and an inhibition (off-target kinases [3]; read-out: % Inhibition Avg) of 7%. It also gave an inhibition (off-target kinases [4]; read-out: % Inhibition 1) of 46%, an inhibition (off-target kinases [4]; read-out: % Inhibition 2) of 49% and an inhibition (off-target kinases [4]; read-out: % Inhibition Avg) of 47%. For the same compound, the inhibition (off-target kinases [5]; read-out: % Inhibition 1) was 101%, the inhibition (off-target kinases [5]; read-out: % Inhibition 2) was 101% and the inhibition (off-target kinases [5]; read-out: % Inhibition Avg) was 101%. For the same compound, the inhibition (off-target kinases [6]; read-out: % Inhibition 1) was 11%, the inhibition (off-target kinases [6]; read-out: % Inhibition 2) was 3% and the inhibition (off-target kinases [6]; read-out: % Inhibition Avg) was 7%. It also gave an inhibition (off-target kinases [7]; read-out: % Inhibition 1) of 4%, an inhibition (off-target kinases [7]; read-out: % Inhibition 2) of -2% and an inhibition (off-target kinases [7]; read-out: % Inhibition Avg) of 1%. The inhibition (off-target kinases [8]; read-out: % Inhibition 1) was 1%, the inhibition (off-target kinases [8]; read-out: % Inhibition 2) was 8% and the inhibition (off-target kinases [8]; read-out: % Inhibition Avg) was 5%.
